Experimental data: patent US20150299120A1, “Spirohydantoin compounds and their use as selective androgen receptor modulators” (NOVARTIS AG, priority 2012, published 2015)
Where two headings read alike, the source gives them in different places.

Molecular target: T1, androgen receptor (AR) (Homo sapiens, UniProt P10275)
T1 construct: transfecting C2C12 cells with a plasmid containing full-length AR; expressed in transfected cells; host or cells: mouse myoblastic C2C12 cells (ATCC CRL-1772), transiently transfected with AR-FL in pcDNA 3.1(+)
T1 sequence (P10275 1-920): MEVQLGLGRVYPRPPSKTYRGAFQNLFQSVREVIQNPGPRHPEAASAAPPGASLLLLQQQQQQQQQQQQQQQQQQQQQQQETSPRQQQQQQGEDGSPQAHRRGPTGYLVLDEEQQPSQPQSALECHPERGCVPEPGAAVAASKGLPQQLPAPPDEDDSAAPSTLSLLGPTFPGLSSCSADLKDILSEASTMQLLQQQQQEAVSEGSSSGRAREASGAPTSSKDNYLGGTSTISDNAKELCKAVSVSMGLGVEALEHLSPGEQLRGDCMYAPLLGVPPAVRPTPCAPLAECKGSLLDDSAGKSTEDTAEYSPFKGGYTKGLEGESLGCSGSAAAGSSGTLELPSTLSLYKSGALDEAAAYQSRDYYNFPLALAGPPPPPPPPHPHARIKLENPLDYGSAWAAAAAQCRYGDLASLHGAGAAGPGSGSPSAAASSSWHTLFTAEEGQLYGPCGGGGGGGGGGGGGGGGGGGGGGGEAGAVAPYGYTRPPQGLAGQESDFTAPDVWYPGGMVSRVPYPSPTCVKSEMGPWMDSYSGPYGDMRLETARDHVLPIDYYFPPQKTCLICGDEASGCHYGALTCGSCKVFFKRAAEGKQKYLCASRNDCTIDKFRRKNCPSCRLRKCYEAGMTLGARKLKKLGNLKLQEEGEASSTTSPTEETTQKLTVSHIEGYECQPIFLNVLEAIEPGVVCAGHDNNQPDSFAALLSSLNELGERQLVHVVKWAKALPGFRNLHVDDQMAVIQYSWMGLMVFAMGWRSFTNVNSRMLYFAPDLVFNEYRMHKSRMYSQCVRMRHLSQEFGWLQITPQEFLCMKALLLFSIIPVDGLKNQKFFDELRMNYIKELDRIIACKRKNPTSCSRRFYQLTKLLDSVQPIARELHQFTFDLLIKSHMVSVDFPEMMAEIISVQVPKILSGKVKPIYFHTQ
Experiment: Test 1: androgen receptor transcriptional activation (2XIDR17-luciferase) assay in transfected C2C12 cells
Assay type: cell-based
Details: for Emax: C2C12, C2C12 cells, percentage activity relative to 1 μM DHT, read-out: Biological activity (C2C12 cell) Emax % (converted); for % Biological activity (C2C12 cell) 100 nM: compound at 100 nM; for % Biological activity (C2C12 cell) 100 nM / % Biological activity (C2C12 cell) 5 μM: relative to 1 μM DHT; for % Biological activity (C2C12 cell) 5 μM: compound at 5 μM
Protocol: A suitable assay to determine the ability of a ligand to transcriptionally activate androgen receptor (AR) is carried out using mouse myoblastic C2C12 cells. The assay involves transfecting C2C12 cells with a plasmid containing full-length AR along with an AR response element linked to luciferase (2XIDR17). The luminescence read-out at the end of the assay is measured using Victor 3 and is a direct measure of the transcriptional activity. The assay has been validated using the reference compound, BMS-564929, for which EC50 values have been reported in a similar set-up.
C2C12 cells were obtained from ATCC (Cat #CRL-1772) and maintained in DMEM modified to contain 4 mM L-glutamine, 4.5 g/L glucose, 1 mM sodium pyruvate and 1.5 g/L sodium bicarbonate and 10% FBS.
AR-FL in pcDNA 3.1(+) and 2XIDR17 in pGL4.26 plasmids prepared using Genelute plasmid miniprep kit from Sigma Cat #PLED35 Steadyglow Luciferase assay system Promega Cat #E2550
• C2C12 cells were seeded in a 96-well plate in DMEM (Dulbecco's Modified Eagle Medium) without phenol red and containing 10% CS-FBS (Charcoal-stripped Fetal Bovine Serum) at 8000 cells/well. • The next day, cells were transfected with an equimolar ratio of (Androgen Receptor-Full length) AR-FL and 2XIDR17-Luciferase at a total plasmid concentration of 200 ng/well using Lipofectamine 2000 following manufacturer's protocol. • For the transfection, 83 ng of AR-FL and 117 ng of 2XIDR17-Luciferase were in 12.5 μl of OptiMEM—Mix A. 0.4 μl of Lipofectamine 2000 was added to 12.5 μl of OptiMEM and incubated for 5 min at room temperature—Mix B. The two mixes A and B were mixed and incubated at room temperature for an additional fifteen minutes. An additional 50 μl of OptiMEM was added, gently mixed and this mixture was added to the cells in the 96-well plate. The above quantities are requirements per well of a 96-well plate. Master mixes were made for the entire plate, with proportional quantity of reagents being used. • 5 h after transfection, compounds were added to the wells in DMEM without phenol red and containing 10% CS-FBS, maintaining a final DMSO concentration of 0.5%. A typical dose response curve starts at 10 μM and includes a 7-point, log dilution, done in triplicates. • After overnight incubation with the compounds, 100 ul of working solution of Steadyglow reagent was added to the wells. • The plates were placed in a shaker for 15 min at the end of which the lysate containing luciferase was transferred to a white flat-bottom plate and read under a luminescence setting in Victor. • Background subtracted counts (Luminescence from DMSO control wells is considered the background) are used to calculate percentage activity, expressed relative to activity with 1 μM (Dihydrotestosterone) DHT (at least two sets of triplicates for 1 μM DHT are included per plate).
The EC50 curves for the compounds for 8 compound concentrations were fitted by the respective function using non-linear least-squares regression in Graphpad Prism 4.0 (Graphpad Software, San Diego, Calif., USA).

[1] = mouse myoblastic C2C12 cells transfected with full-length AR and 2XIDR17-luciferase, read-out: Biological activity (C2C12 cell) EC50
[2] = C2C12 cells, read-out: EC50 value in test 1

Row | Compound | Emax [%] | EC50 [1] [nM] | further results
1 | Cc1c(N2C(=O)N(CCCC#N)C3(CCCC3)C2=O)ccc(C#N)c1Cl [Example 9.4, 2-chloro-4-(1-(3-cyanopropyl)-2,4-dioxo-1,3-diazaspiro[4.4]nonan-3-yl)-3-methylbenzonitrile] | 90 | 26.5 | 
2 | CCOCCN1C(=O)N(c2ccc(C#N)c(Cl)c2C)C(=O)C12CCCC2 [2-chloro-4-(1-(2-ethoxyethyl)-2,4-dioxo-1,3-diazaspiro[4.4]nonan-3-yl)-3-methylbenzonitrile] |  |  | EC50 [2]: > 30000 nM
3 | Cc1c(N2C(=O)N(CCOC(C)C)C3(CCCC3)C2=O)ccc(C#N)c1Cl [2-chloro-4-(1-(2-isopropoxyethyl)-2,4-dioxo-1,3-diazaspiro[4.4]nonan-3-yl)-3-methylbenzonitrile] |  |  | EC50 [2]: > 30000 nM
4 | Cc1c(N2C(=O)N(CCC#N)C3(CCCC3)C2=O)ccc(C#N)c1Cl [Example 9.8, 2-chloro-4-(1-(2-cyanoethyl)-2,4-dioxo-1,3-diazaspiro[4.4]nonan-3-yl)-3-methylbenzonitrile] | 85 | 169 ± 82 | 
5 | Cc1c(N2C(=O)N(C)C3(CCCC3O)C2=O)ccc(C#N)c1Cl (stereo not shown) [1.0] | 80 |  | 
6 | Cc1c(N2C(=O)N(Cc3ncc(CO)o3)C3(CCCC3)C2=O)ccc(C#N)c1Cl [Example 8.8, 2-chloro-4-(1-((5-(hydroxymethyl)oxazol-2-yl)methyl)-2,4-dioxo-1,3-diazaspiro[4.4]nonan-3-yl)-3-methylbenzonitrile] |  |  | % Biological activity (C2C12 cell) 100 nM (C2C12 cells): 26%; % Biological activity (C2C12 cell) 5 μM (C2C12 cells): 70%
7 | Cc1c(N2C(=O)N(CCc3ccncc3)C3(CCCC3)C2=O)ccc(C#N)c1Cl [Example 8.2, 2-chloro-4-(2,4-dioxo-1-(2-(pyridin-4-yl)ethyl)-1,3-diazaspiro[4.4]nonan-3-yl)-3-methylbenzonitrile] | 70 | 203 | 
8 | CCN1C(=O)N(c2ccc(C#N)c(Cl)c2C)C(=O)C12CCCC2O (stereo not shown) [1.3] | 79 |  | 
9 | Cc1c(N2C(=O)N(CCN3CCOCC3)C3(CCCC3)C2=O)ccc(C#N)c1Cl [2-chloro-3-methyl-4-(1-(2-morpholinoethyl)-2,4-dioxo-1,3-diazaspiro[4.4]nonan-3-yl)benzonitrile] |  |  | EC50 [2]: > 30000 nM
10 | Cc1c(N2C(=O)N(C)C3(CCCC3)C2O)ccc(C#N)c1Cl (stereo not shown) [2-chloro-4-(4-hydroxy-1-methyl-2-oxo-1,3-diazaspiro[4.4]nonan-3-yl)-3-methylbenzonitrile] |  |  | EC50 [2]: > 30000 nM
11 | Cc1c(N2C(=O)N(C)C3(CCOC3)C2=O)ccc(C#N)c1Cl (stereo not shown) [10.0] | 60 |  | 
12 | Cc1c(N2CC3(CCCC3O)N(C)C2=O)ccc(C#N)c1Cl (stereo not shown) [2.0] | 76 | 2910 | 
13 | Cc1c(N2C(=O)N(CCOCC#N)C3(CCCC3)C2=O)ccc(C#N)c1Cl [Example 9.3, 2-chloro-4-(1-(2-(cyanomethoxy)ethyl)-2,4-dioxo-1,3-diazaspiro[4.4]nonan-3-yl)-3-methylbenzonitrile] | 91 | 19.9 ± 1.7 | 
14 | Cc1c(N2C(=O)N(C)C3(CCC(F)C3)C2=O)ccc(C#N)c1Cl (stereo not shown) [6.1] | 99 |  | 
15 | Cc1c(N2C(=O)N(Cc3cnco3)C3(CCCC3)C2=O)ccc(C#N)c1Cl [Example 8.9, 2-chloro-3-methyl-4-(1-(oxazol-5-ylmethyl)-2,4-dioxo-1,3-diazaspiro[4.4]nonan-3-yl)benzonitrile] | 87 | 25 | 
16 | Cc1c(N2C(=O)N(CCCCCC#N)C3(CCCC3)C2=O)ccc(C#N)c1Cl [Example 9.1, 2-chloro-4-(1-(5-cyanopentyl)-2,4-dioxo-1,3-diazaspiro[4.4]nonan-3-yl)-3-methylbenzonitrile] | 108 | 8.7 ± 2.1 | 
17 | Cc1c(N2C(=O)N(CCCF)C3(CCCC3)C2=O)ccc(C#N)c1Cl [Example 9.9, 2-chloro-4-(1-(3-fluoropropyl)-2,4-dioxo-1,3-diazaspiro[4.4]nonan-3-yl)-3-methylbenzonitrile] |  |  | % Biological activity (C2C12 cell) 100 nM (C2C12 cells): 27%; % Biological activity (C2C12 cell) 5 μM (C2C12 cells): 52%
18 | COC1N(c2ccc(C#N)c(Cl)c2C)C(=O)OC12CCCC2O (stereo not shown) [Example 4.1, 2-chloro-4-(6-hydroxy-4-methoxy-2-oxo-1-oxa-3-azaspiro[4.4]nonan-3-yl)-3-methylbenzonitrile] | 40 | 2590 | 
19 | Cc1c(N2CC3(CCCC3F)N(C)C2=O)ccc(C#N)c1Cl (stereo not shown) [2-chloro-4-(6-fluoro-1-methyl-2-oxo-1,3-diazaspiro[4.4]nonan-3-yl)-3-methylbenzonitrile] |  |  | EC50 [2]: > 30000 nM
20 | COC1N(c2ccc(C#N)c(Cl)c2C)C(=O)N(C)C12CCCC2 (stereo not shown) [2-chloro-4-(4-methoxy-1-methyl-2-oxo-1,3-diazaspiro[4.4]nonan-3-yl)-3-methylbenzonitrile] |  |  | EC50 [2]: > 30000 nM
21 | Cc1c(N2C(=O)N(C)[C@]3(CCC[C@@H]3F)C2=O)ccc(C#N)c1Cl [1.4(iv), 2-chloro-4-((5R,6S)-6-fluoro-1-methyl-2,4-dioxo-1,3-diazaspiro[4.4]nonan-3-yl)-3-methylbenzonitrile] |  | 0.79 | 
22 | Cc1c(N2CC3(CCCC3O)OC2=O)ccc(C#N)c1Cl (stereo not shown) [2-chloro-4-(6-hydroxy-2-oxo-1-oxa-3-azaspiro[4.4]nonan-3-yl)-3-methylbenzonitrile] |  |  | EC50 [2]: > 30000 nM
23 | Cc1c(N2C(=O)N(C)C3(CCCC3F)C2=O)ccc(C#N)c1Cl (stereo not shown) [1.4] | 60 |  | 
24 | Cc1c(N2C(=O)N(CCF)C3(CCCC3)C2=O)ccc(C#N)c1Cl [Example 9.0, 2-chloro-4-(1-(2-fluoroethyl)-2,4-dioxo-1,3-diazaspiro[4.4]nonan-3-yl)-3-methylbenzonitrile] | 99 |  | EC50 (Biological activity (C2C12 cell) EC50 (nM), mouse myoblastic C2C12 cells transfected with full-length AR and 2XIDR17-luciferase): 45.4 nM
25 | Cc1c(N2C(=O)N(C)C3(CCC(O)C3)C2=O)ccc(C#N)c1Cl (stereo not shown) [Example 6.0, 2-chloro-4-(7-hydroxy-1-methyl-2,4-dioxo-1,3-diazaspiro[4.4]nonan-3-yl)-3-methylbenzonitrile] | 70 | 53 | 
26 | Cc1c(N2C(=O)N(CCOCC(C)C)C3(CCCC3)C2=O)ccc(C#N)c1Cl [2-chloro-4-(1-(2-isobutoxyethyl)-2,4-dioxo-1,3-diazaspiro[4.4]nonan-3-yl)-3-methylbenzonitrile] |  |  | EC50 [2]: > 30000 nM
27 | Cc1cnc(CN2C(=O)N(c3ccc(C#N)c(Cl)c3C)C(=O)C23CCCC3)o1 [Example 8.7, 2-chloro-3-methyl-4-(1-((5-methyloxazol-2-yl)methyl)-2,4-dioxo-1,3-diazaspiro[4.4]nonan-3-yl)benzonitrile] | 112 | 8.9 | 
